Test results from patent US9708311B2, “Benzimidazole derivatives as EP4 antagonists” (BAYER PHARMA AKTIENGESELLSCHAFT, priority 2012, dated 2017).

Target: human EP4 receptor (Homo sapiens (Human), UniProt P35408)
Experiment: Test for antagonism of the human EP4 receptor signal (cAMP HTRF)
Type: cell-based
Conditions: cells expressing hEP4, PGE2 at EC80 (0.4 nM), cAMP TR-FRET; read-out: Antagonism hEP4 IC50
Excerpt: The binding of the agonist prostaglandin E2 (PGE2) to the EP4 subtype of human hPGE2-R (hEP4-R) induces the activation of membrane-bound adenylate cyclases and thus the formation of cAMP. In the presence of the phosphodiesterase inhibitor IBMX, this cAMP accumulates intracellularly and is employed in a competitive detection procedure after cell lysis. In this procedure, it competes with a fluorescence-labelled cAMP (cAMP-d2) for binding to an Eu cryptate-labelled anti-cAMP antibody. In the absence of cellular cAMP, a complex is formed between the Eu cryptate-labelled anti-cAMP antibody and the cAMP-d2 molecule, which after excitation at 337 nm makes possible an energy transfer based on FRET (fluorescence resonance energy transfer) to the cAMP-d2 tracer and leads to a long-lasting fluorescence signal (emission at 665 and 620 nm). This signal is time-resolved, i.e. measured in a suitable measuring apparatus after decay of the background fluorescence (time resolved; TR-FRET). The wave ratio determination (emission 665 nm/emission 620 nm*10000) moreover makes it possible to standardize individual measurement differences in the added amounts of the detection reagents.
By means of prostaglandin E2 administration and increase in the intracellular cAMP, a lowering of the FRET signal occurs, which in the case of an antagonistic substance action increases again.
A further 20 min at room temperature later, the cell lysate is measured according to the manufacturer's instructions in a TR-FRET-suitable measuring apparatus (compare cAMP HTRF assay kit: Cisbio International 62AM6PEJ high range)

human EP4 receptor, sequence (P35408 whole entry): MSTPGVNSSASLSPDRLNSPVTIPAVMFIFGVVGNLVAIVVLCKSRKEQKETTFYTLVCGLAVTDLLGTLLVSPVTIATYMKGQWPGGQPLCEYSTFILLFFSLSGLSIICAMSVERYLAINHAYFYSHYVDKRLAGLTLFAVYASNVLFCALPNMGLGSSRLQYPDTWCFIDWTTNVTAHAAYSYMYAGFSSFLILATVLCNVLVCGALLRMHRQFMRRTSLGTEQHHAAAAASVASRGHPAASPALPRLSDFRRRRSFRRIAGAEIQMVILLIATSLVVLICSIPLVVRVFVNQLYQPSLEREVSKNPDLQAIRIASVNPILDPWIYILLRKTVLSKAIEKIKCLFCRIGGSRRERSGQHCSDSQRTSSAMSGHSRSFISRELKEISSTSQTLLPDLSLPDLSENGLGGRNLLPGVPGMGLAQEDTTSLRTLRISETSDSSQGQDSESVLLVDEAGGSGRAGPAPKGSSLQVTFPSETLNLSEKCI

SMILES	IC50
CCn1c2ccccc2c2cc(-c3nc4cc(C(=O)O)ccc4n3CCO)ccc21 [Example 91, 2-(9-Ethyl-9H-carbazol-3-yl)-1-(2-hydroxyethyl)-1H-benzimidazole-5-carboxylic acid]	0.113 µM
CCOC(=O)c1ccc2c(c1)nc(-c1ccc3c(c1)c1ccccc1n3CC)n2CC1COC1 [Example 122, Ethyl 2-(9-ethyl-9H-carbazol-3-yl)-1-(oxetan-3-ylmethyl)-1H-benzimidazole-5-carboxylate]	0.464 µM
CCn1c2ccccc2c2cc(-c3nc4cc(C(=O)NC)ccc4n3C)ccc21 [Example 90, 2-(9-Ethyl-9H-carbazol-3-yl)-N,1-dimethyl-1H-benzimidazole-5-carboxamide]	2.86 µM
C=CCn1c(-c2ccc3c(c2)c2ccccc2n3CC)nc2cc(C(=O)N(C)C)ccc21 [Example 85, 1-Allyl-2-(9-ethyl-9H-carbazol-3-yl)-N,N-dimethyl-1H-benzimidazole-5-carboxamide]	1.86 µM
CCn1c2ccccc2c2cc(-c3nc4cc(C(=O)NS(=O)(=O)CCc5ccccc5C)ccc4n3CCOC)ccc21 [Example 57, 2-(9-Ethyl-9H-carbazol-3-yl)-1-(2-methoxyethyl)-N-{[2-(2-methylphenyl)ethyl]sulphonyl}-1H-benzimidazole-5-carboxamide]	0.239 µM
CCn1c2ccccc2c2cc(-c3nc4cc(C(=O)O)ccc4n3C[C@@H]3COCCO3)ccc21 [Example 139, 1-[(2R)-1,4-Dioxan-2-ylmethyl]-2-(9-ethyl-9H-carbazol-3-yl)-1H-benzimidazole-5-carboxylic acid]	0.252 µM
CCn1c2ccccc2c2cc(-c3nc4cc(C(=O)NCCN5CCCC5)ccc4n3CCOC)ccc21 [Example 87, 2-(9-Ethyl-9H-carbazol-3-yl)-1-(2-methoxyethyl)-N-[2-(pyrrolidin-1-yl)ethyl]-1H-benzimidazole-5-carboxamide]	0.209 µM
CCn1c2ccc(-c3nc4cc(C(=O)O)ccc4n3CC3CC3)cc2c2ccncc21 [Example 108, 1-(Cyclopropylmethyl)-2-(9-ethyl-9H-beta-carbolin-6-yl)-1H-benzimidazole-5-carboxylic acid]	0.119 µM
CCn1c2ccccc2c2cc(-c3nc4cc(C(=O)O)c(C)cc4n3CC3CC3)ccc21 [Example 110, 1-(Cyclopropylmethyl)-2-(9-ethyl-9H-carbazol-3-yl)-6-methyl-1H-benzimidazole-5-carboxylic acid]	1.18 µM
CCn1c2ccccc2c2cc(-c3nc4cc(C(=O)O)c(OC)cc4n3CCOC)ccc21 [Example 103, 2-(9-Ethyl-9H-carbazol-3-yl)-6-methoxy-1-(2-methoxyethyl)-1H-benzimidazole-5-carboxylic acid]	3.11 µM
CCn1c2ccccc2c2cc(-c3nc4cc(C(N)=O)ccc4n3CC3CC3)ccc21 [Example 26, 1-(Cyclopropylmethyl)-2-(9-ethyl-9H-carbazol-3-yl)-1H-benzimidazole-5-carboxamide]	0.176 µM
CCn1c2ccccc2c2cc(-c3nc4cc(C(=O)NCCN5CCOCC5)ccc4n3CC3CC3)ccc21 [Example 79, 1-(Cyclopropylmethyl)-2-(9-ethyl-9H-carbazol-3-yl)-N-[2-(morpholin-4-yl)ethyl]-1H-benzimidazole-5-carboxamide]	0.106 µM
CCOC(=O)c1ccc2c(c1)nc(-c1ccc3c(c1)c1ccccc1n3CC)n2CCN(C)C [Example 71, Ethyl-1-[2-(dimethylamino)ethyl]-2-(9-ethyl-9H-carbazol-3-yl)-1H-benzimidazole-5-carboxylate]	0.872 µM
CCn1c2ccccc2c2cc(-c3nc4cc(C(=O)N5CCCC5)ccc4n3CCOC)ccc21 [Example 76, [2-(9-Ethyl-9H-carbazol-3-yl)-1-(2-methoxyethyl)-1H-benzimidazol-5-yl](pyrrolidin-1-yl)-methanone]	0.0413 µM
CCn1c2ccccc2c2cc(-c3nc4cc(C(=O)N(C)S(C)(=O)=O)ccc4n3CCOC)ccc21 [Example 84, 2-(9-Ethyl-9H-carbazol-3-yl)-1-(2-methoxyethyl)-N-methyl-N-(methylsulphonyl)-1H-benzimidazole-5-carboxamide]	0.143 µM
CCn1c2ccccc2c2cc(-c3nc4cc(C(=O)O)ccc4n3CC3CC3(C)C)ccc21 (centres unmarked) [Example 121, 1-[(2,2-Dimethylcyclopropyl)methyl]-2-(9-ethyl-9H-carbazol-3-yl)-1H-benzimidazole-5-carboxylic acid]	0.1 µM
CCn1c2ccccc2c2cc(-c3nc4cc(C(=O)NS(=O)(=O)CCc5cccc(OC)c5)ccc4n3CCOC)ccc21 [Example 69, 2-(9-Ethyl-9H-carbazol-3-yl)-1-(2-methoxyethyl)-N-{[2-(3-methoxyphenyl)ethyl]-sulphonyl}-1H-benzimidazole-5-carboxamide]	0.155 µM
CCn1c2ccccc2c2cc(-c3nc4cc(C(=O)NS(=O)(=O)c5ccc(C)cn5)ccc4n3CCOC)ccc21 [Example 63, 2-(9-Ethyl-9H-carbazol-3-yl)-1-(2-methoxyethyl)-N-[(5-methylpyridin-2-yl)sulphonyl]-1H-benzimidazole-5-carboxamide]	0.117 µM
COCCn1c(-c2ccc3c(c2)c2ccccc2n3CC2CCC2)nc2cc(C(=O)O)ccc21 [Example 124, 2-[9-(Cyclobutylmethyl)-9H-carbazol-3-yl]-1-(2-methoxyethyl)-1H-benzimidazole-5-carboxylic acid]	0.0943 µM
CCn1c2ccccc2c2cc(-c3nc4cc(C(=O)NS(=O)(=O)CCc5ccc(C(F)(F)F)cc5)ccc4n3CCOC)ccc21 [Example 20, 2-(9-Ethyl-9H-carbazol-3-yl)-1-(2-methoxyethyl)-N-({2-[4-(trifluoromethyl)phenyl]ethyl}-sulphonyl)-1H-benzimidazole-5-carboxamide]	0.683 µM
C=CCn1c(-c2ccc3c(c2)c2ccccc2n3CC)nc2cc(C(=O)OC)ccc21 [Example 1, Methyl 1-allyl-2-(9-ethyl-9H-carbazol-3-yl)-1H-benzimidazole-5-carboxylate]	3.1 µM

The next compounds have a lower IC50 than those just listed; values first:

IC50	SMILES
0.0369 µM	CCn1c2ccccc2c2cc(-c3nc4cc(C(=O)NS(=O)(=O)Cc5c(C)cccc5Cl)ccc4n3CCOC)ccc21 [Example 67, N-[(2-Chloro-6-methylbenzyl)sulphonyl]-2-(9-ethyl-9H-carbazol-3-yl)-1-(2-methoxy-ethyl)-1H-benzimidazole-5-carboxamide]
0.0363 µM	CCn1c2ccccc2c2cc(-c3nc4cc(C(=O)NS(=O)(=O)Cc5ncccc5C)ccc4n3CCOC)ccc21 [Example 68, 2-(9-Ethyl-9H-carbazol-3-yl)-1-(2-methoxyethyl)-N-{[(3-methylpyridin-2-yl)methyl]-sulphonyl}-1H-benzimidazole-5-carboxamide]
0.0322 µM	CCn1c2ccccc2c2cc(-c3nc4cc(C(=O)NS(=O)(=O)c5ccc(OC)cc5)ccc4n3CCOC)ccc21 [Example 19, 2-(9-Ethyl-9H-carbazol-3-yl)-1-(2-methoxyethyl)-N-[(4-methoxyphenyl)sulphonyl]-1H-benzimidazole-5-carboxamide]
0.0301 µM	CCn1c2ccccc2c2cc(-c3nc4cc(C(=O)N5CCC5)ccc4n3CCOC)ccc21 [Example 30, Azetidin-1-yl[2-(9-ethyl-9H-carbazol-3-yl)-1-(2-methoxyethyl)-1H-benzimidazol-5-yl]methanone]
0.0238 µM	CCn1c2ccccc2c2cc(-c3nc4cc(C(=O)NS(C)(=O)=O)ccc4n3CCOC)ccc21 [Example 15, 2-(9-Ethyl-9H-carbazol-3-yl)-1-(2-methoxyethyl)-N-(methylsulphonyl)-1H-benzimidazole-5-carboxamide]
0.0228 µM	CCn1c2ccccc2c2cc(-c3nc4cc(C(=O)NS(=O)(=O)CC)ccc4n3CCOC)ccc21 [Example 18, 2-(9-Ethyl-9H-carbazol-3-yl)-N-(ethylsulphonyl)-1-(2-methoxyethyl)-1H-benzimidazole-5-carboxamide]
0.0197 µM	CCn1c2ccccc2c2cc(-c3nc4c(Cl)c(C(=O)O)ccc4n3CC3CC3)ccc21 [Example 8, 4-Chloro-1-(cyclopropylmethyl)-2-(9-ethyl-9H-carbazol-3-yl)-1H-benzimidazole-5-carboxylic acid]
0.0144 µM	CCn1c2ccccc2c2cc(-c3nc4cc(C(=O)O)ccc4n3CC3CC3)ccc21 [Example 6, 1-(Cyclopropylmethyl)-2-(9-ethyl-9H-carbazol-3-yl)-1H-benzimidazole-5-carboxylic acid]
0.0143 µM	CCn1c2ccccc2c2cc(-c3nc4cc(C(=O)O)ccc4n3CCOC(F)(F)F)ccc21 [Example 130, 2-(9-Ethyl-9H-carbazol-3-yl)-1-[2-(trifluoromethoxy)ethyl]-1H-benzimidazole-5-carboxylic acid]
0.0131 µM	COCCn1c(-c2ccc3c(c2)c2ccccc2n3CC2CC2)nc2cc(C(=O)O)ccc21 [Example 36, 2-[9-(Cyclopropylmethyl)-9H-carbazol-3-yl]-1-(2-methoxyethyl)-1H-benzimidazole-5-carboxylic acid]
0.0102 µM	CCn1c2ccc(-c3nc4cc(C(=O)O)ccc4n3CCOC)cc2c2cccc(F)c21 [Example 12, 2-(9-Ethyl-8-fluoro-9H-carbazol-3-yl)-1-(2-methoxyethyl)-1H-benzimidazole-5-carboxylic acid]
